Consider 35 compounds from ChEMBL document CHEMBL4270520, “From hit to lead: Structure-based discovery of naphthalene-1-sulfonamide derivatives as potent and selective inhibitors of fatty acid binding protein 4” (Eur J Med Chem, 2018).

The target of data set [1] is T1, Fatty acid-binding protein, adipocyte (Homo sapiens, UniProt P15090).
Description: Displacement of 1,8-ANS from FABP4 (unknown origin) after 3 mins by fluorescence assay
Data set [2] deals with Fatty acid-binding protein, heart (Homo sapiens, UniProt P05413). Kind of data set: Inhibition of FABP3 (unknown origin).
Data set [3] can be described thus: Intrinsic clearance in human liver microsomes assessed per gram of protein at 0.1 uM by HPLC-MS/MS analysis. The data set is classed as ADME, microsome. Background: Liver microsomes are vesicles of endoplasmic reticulum, rich in cytochrome P450 enzymes.
For data set [4], the system named is Mus musculus. Kind of data set: Toxicity in C57BL/Ksj db/db mouse assessed as body weight loss at 100 mg/kg, po administered once daily via lavage for 5 weeks measured daily during compound dosing. The settings on record: in vivo, 840 h. The data set is classed as organism-based.
Data set [5] relates to Mus musculus. Put plainly: Toxicity in C57BL/Ksj db/db mouse assessed as effect on pancreas at 100 mg/kg, po administered once daily via lavage for 5 weeks measured daily during compound dosing. The data set is classed as organism-based. The following applies: in vivo, 840 h.
Data set [6] in a line: Intrinsic clearance in rat liver microsomes assessed per gram of protein at 0.1 uM by HPLC-MS/MS analysis. The data set is classed as ADME, microsome.
Data set [7] is described as follows: Stability in rat liver microsomes assessed as parent compound remaining at 0.1 uM after 60 mins by HPLC-MS/MS analysis. The settings on record: read-out: Stability. It counts as ADME, microsome.
Data set [8] is described as follows: Half life in mouse liver microsomes at 0.1 uM by HPLC-MS/MS analysis. It counts as ADME, microsome.
Another data set relates to 3T3-L1. Put plainly: Cytotoxicity against mouse 3T3L1 pre-adipocytes assessed as effect on cell viability up to 80 uM after 24 hrs by MTT assay. The data set is classed as cell-based. The settings on record: 3t3-l1, 24 h. On the technique in general: Tetrazolium dyes change colour on reduction, which living cells bring about.
The nature of data set [9]: Stability in human liver microsomes assessed as parent compound remaining at 0.1 uM after 60 mins by HPLC-MS/MS analysis. It counts as ADME, microsome. The settings on record: read-out: Stability.
In data set [10] the test system is Mus musculus. Put plainly: Hepatotoxicity in C57BL/Ksj db/db mouse at 100 mg/kg, po administered once daily via lavage for 5 weeks measured daily during compound dosing. The data set is classed as toxicity, organism-based. The settings on record: in vivo, 840 h.
A short description of data set [11]: Half life in human liver microsomes at 0.1 uM by HPLC-MS/MS analysis. The data set is classed as ADME, microsome.
Data set [12] in a line: Intrinsic clearance in mouse liver microsomes assessed per gram of protein at 0.1 uM by HPLC-MS/MS analysis. The data set is classed as ADME, microsome.
Data set [13] in a line: Half life in rat liver microsomes at 0.1 uM by HPLC-MS/MS analysis. The data set is classed as ADME, microsome.
The next data set in a line: in vitro. The following applies: mouse, plasma.
In data set [14] the test system is Mus musculus. Kind of data set: Effect on total cholesterol levels in C57BL/Ksj db/db mouse at 100 mg/kg, po administered once daily via lavage for 2 to 4 weeks. The data set is classed as ADME, organism-based. The settings on record: in vivo.
A short description of data set [15]: Stability in mouse liver microsomes assessed as parent compound remaining at 0.1 uM after 60 mins by HPLC-MS/MS analysis. It counts as ADME, microsome. The following applies: read-out: Stability.
For data set [16], the system named is Mus musculus. Put plainly: Antidiabetic activity in C57BL/Ksj db/db mouse assessed as reduction in fasting blood glucose level at 100 mg/kg, po administered once daily via lavage for 14 to 35 days relative to control. It counts as functional. More on the design: scale not given: the % may be the effect or the level left.
The subject of data set [17] is Mus musculus. Kind of data set: Toxicity in C57BL/Ksj db/db mouse assessed as effect on abdominal adipose tissue lipid content at 100 mg/kg, po administered once daily via lavage for 5 weeks measured daily during compound dosing. It counts as organism-based. The following applies: in vivo, 840 h.
The test system of data set [18] is Mus musculus. Put plainly: Renal toxicity in C57BL/Ksj db/db mouse at 100 mg/kg, po administered once daily via lavage for 5 weeks measured daily during compound dosing. The data set is classed as organism-based. The following applies: in vivo, 840 h.
Data set [19] deals with T1, Fatty acid-binding protein, adipocyte. Put plainly: Binding affinity to FABP4 (unknown origin) by isothermal calorimetric titration method. Background: Isothermal titration calorimetry measures the heat released or taken up as one component is titrated into another.

T1 sequence (P15090 whole entry): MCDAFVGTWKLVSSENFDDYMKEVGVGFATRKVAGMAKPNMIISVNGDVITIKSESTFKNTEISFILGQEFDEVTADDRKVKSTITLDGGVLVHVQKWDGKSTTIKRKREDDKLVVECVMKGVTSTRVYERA
Fatty acid-binding protein, heart, sequence (P05413 whole entry): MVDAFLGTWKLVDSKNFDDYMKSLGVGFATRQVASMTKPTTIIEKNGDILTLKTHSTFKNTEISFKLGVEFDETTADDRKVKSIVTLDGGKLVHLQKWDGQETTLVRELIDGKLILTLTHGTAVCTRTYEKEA
Description for in vitro: Protein binding in mouse plasma at 1 uM after 16 hrs by LC-MS/MS analysis

`O=C(O)CSCC(=O)Nc1cc(Cl)cc(Cl)c1`: the Ki in data set [1] was 1660 nM.

In turn, `O=C(O)CCCCNS(=O)(=O)c1ccc(Cl)c2ccccc12` displayed a Ki in data set [1] of 1850 nM.

`COc1ccc(S(=O)(=O)NCc2ccc(C(=O)O)cc2)c2ccccc12`: the affinity in [1] corresponds to a Ki of 760 nM.

In turn, `COc1ccc(S(=O)(=O)Nc2cc(C(=O)O)ccc2Cl)c2ccccc12` showed a Ki in data set [1] of 930 nM.

Regarding `COc1ccc(S(=O)(=O)NCc2cccc(C(=O)O)c2)c2ccccc12`, in [1], affinity was put at a Ki of 2120 nM.

Turning to `COc1ccc(S(=O)(=O)Nc2cc(C(=O)O)c(F)cc2F)c2ccccc12`, the IC50 in [2] is > 100000 nM. Further, in data set [1], the IC50 was found to be 1840 nM and the Ki was 230 nM.

As for `Cc1c(C)c(C)c(S(=O)(=O)NCCCCC(=O)O)c(C)c1C`, affinity in [1] was put at a Ki of 910 nM.

`O=C(O)CCCCCNS(=O)(=O)c1cc(Cl)cc(Cl)c1` displayed a Ki in data set [1] of 4840 nM.

`COc1ccc(S(=O)(=O)Nc2ccc(C(=O)O)cc2)c2ccccc12` displayed a Ki in [1] of 1280 nM.

Take `COc1ccc(C(=O)O)cc1NS(=O)(=O)c1ccc(OC)c2ccccc12`: the Ki in data set [1] was > 6140 nM.

`COc1ccc(S(=O)(=O)Nc2cccc(CCC(=O)O)c2)c2ccccc12` registered a Ki in data set [1] of 580 nM.

As to `COc1ccc(S(=O)(=O)Nc2ccc(F)c(C(=O)O)c2)c2ccccc12`, the CLint in data set [3] was 7.51 mL/min/g; in data set [6], 3.15 mL/min/g; in [12], 1.4 mL/min/g. Besides, the Activity result in the data set on Mus musculus [4] is “Non-Toxic”; with Mus musculus [5], “Non-Toxic”; in the data set on 3T3-L1 it was “Non-Toxic”; in the data set with Mus musculus [10], “Non-Toxic”; in the data set with Mus musculus [14] it was “Non-Toxic”; with Mus musculus [16] it was 20 - 35%. The Activity entry in the data set with Mus musculus [17] and in the data set with Mus musculus [18] was “Non-Toxic” each time. Further, the half-maximal inhibitory concentration (IC50) is > 100000 nM in [2] and 1690 nM in data set [1]. In addition, the figures for the remaining at 1 h, 0.1 µM in data set [7], in data set [9] and in [15] were 93.4%, 72.3% and 96.9%, respectively. In addition, the Ki in data set [1] came to 210 nM. The half-life at 0.1 µM is 24.6 h in [8], 4.66 h in [11] and 11.1 h in data set [13]. For the same compound, the fraction unbound at 16 h, 1 µM in the data set “in vitro” is 0.0147.

With `COc1ccc(S(=O)(=O)Nc2cc(Cl)cc(C(=O)O)c2)c2ccccc12`, the affinity in [1], expressed as Ki, was 820 nM.

As to `O=C(O)CCNS(=O)(=O)c1cc(Cl)cc(Cl)c1`, the Ki in data set [1] was 6510 nM.

`O=C(O)CCCCNS(=O)(=O)c1ccc(Br)c2ccccc12` displayed a Ki in data set [1] of 1160 nM.

Regarding `COc1ccc(S(=O)(=O)Nc2cccc(C(=O)O)c2)c2ccccc12`, the IC50 in data set [2] is > 100000 nM; in [1] it was 3220 nM. Affinity in data set [1] was put at a Ki of 400 nM.

For the compound `Cc1cc(C)c(C)c(S(=O)(=O)NCCCCC(=O)O)c1C`, in [1], the affinity corresponds to a Ki of 1950 nM.

As to `COc1ccc(S(=O)(=O)Nc2cc(F)cc(C(=O)O)c2)c2ccccc12`, the Ki in [1] was found to be 1150 nM.

`COc1ccc(S(=O)(=O)Nc2cc(C(=O)O)ccc2C)c2ccccc12` returned a Ki in [1] of 2760 nM.

Compound `O=C(O)CCCNC(=O)c1cc(Cl)cc(Cl)c1` displayed a Ki in data set [1] of 4320 nM.

`O=C(O)CCCCNS(=O)(=O)c1ccc(F)c2ccccc12` returned an inhibition constant Ki in [1] of 2160 nM.

As to `COc1ccc(S(=O)(=O)Nc2ccc(CC(=O)O)cc2)c2ccccc12`, the affinity in [1], expressed as Ki, was 1670 nM.

Regarding `O=C(O)CCCCNS(=O)(=O)c1cc(Cl)cc(Cl)c1`, affinity in [1] was put at a Ki of 1190 nM.

Consider `COc1ccc(S(=O)(=O)NC(C)c2cccc(C(=O)O)c2)c2ccccc12` (configuration not stated), for which the Ki in data set [1] was > 6140 nM.

For `COc1ccc(S(=O)(=O)Nc2cc(C(=O)O)ccn2)c2ccccc12`, the Ki in data set [1] was > 6140 nM.

As to `COc1ccc(S(=O)(=O)Nc2cncc(C(=O)O)c2)c2ccccc12`, in data set [1], the Ki was > 6140 nM.

For the compound `COc1ccc(S(=O)(=O)Nc2cccc(C(=O)O)c2C)c2ccccc12`, the Ki in [1] was > 6140 nM.

With `O=C(O)CCCNS(=O)(=O)c1cc(Cl)cc(Cl)c1`, affinity in data set [1] was put at a Ki of 2550 nM.

`COc1ccc(S(=O)(=O)Nc2cccc(CC(=O)O)c2)c2ccccc12`: in data set [1], the Ki was found to be 840 nM.

In [19], `COc1ccc(S(=O)(=O)Nc2cccc(C(=O)O)c2F)c2ccccc12` showed a Kd of 6030 nM. In addition, the Ki in data set [1] is 7750 nM.

Compound `COc1ccc(S(=O)(=O)Nc2ccc(F)c(C(=O)O)c2F)c2ccccc12` showed a Ki in [1] of 7380 nM.

Consider `Cc1cc(C)c(S(=O)(=O)NCCCCC(=O)O)c(C)c1`, for which the Ki in data set [1] was determined as 2690 nM.

Take `COc1ccc(S(=O)(=O)Nc2ccc(C)c(C(=O)O)c2)c2ccccc12`: in data set [1], the Ki is > 6140 nM.

As to `COc1ccc(S(=O)(=O)Nc2cc(C(=O)O)ccc2F)c2ccccc12`, the results for the CLint in data set [3], in data set [6] and in data set [12] were 7.02 mL/min/g, 2.9 mL/min/g and 2.4 mL/min/g, respectively. The Activity entry is “Non-Toxic” with Mus musculus [4]; “Non-Toxic” with Mus musculus [5]; “Non-Toxic” with 3T3-L1; “Non-Toxic” in the data set on Mus musculus [10]; “Non-Toxic” in the data set with Mus musculus [14]; 20 - 35% in the data set on Mus musculus [16]. The Activity result in the data set on Mus musculus [17] and in the data set with Mus musculus [18] was “Non-Toxic” in each case. In addition, the IC50 in data set [2] is > 100000 nM. The remaining at 1 h, 0.1 µM in data set [7] worked out at 93.9%; in [9], 73.6%; in data set [15], 94.8%. Moreover, the half-life at 0.1 µM in [8] is 14.3 h; in data set [11], 4.99 h; in [13] it was 12.1 h.

In “in vitro”, `CC(C)NCC(O)COc1cccc2ccccc12` (configuration not stated) [PROPRANOLOL] gave a fraction unbound at 16 h, 1 µM of 0.109.

One may read the Ki as a measure of affinity in units of concentration, obtained from inhibition or displacement. By IC50 is commonly meant the midpoint of a concentration-inhibition curve. A word on the half-life: it is the time in which the quantity being followed falls by half. For orientation: fraction unbound means free concentration divided by total concentration. Usually Kd stands for the free concentration of one partner at which half of the binding sites on the other are occupied at equilibrium, for simple one-to-one binding.
